This note sets out measurements from patent US8859573B2, “Pyrimidinone and pyridinone compounds for use in the treatment of diseases or conditions mediated by Lp-PLA2” (Glaxo Group Limited, priority 2010, dated 2014).

The target of this assay is T1, Lp-PLA2 from plasma (Homo sapiens, UniProt Q13093).
T1 construct: from tissue; host or cells: pooled human plasma
T1 sequence (Q13093 22-441): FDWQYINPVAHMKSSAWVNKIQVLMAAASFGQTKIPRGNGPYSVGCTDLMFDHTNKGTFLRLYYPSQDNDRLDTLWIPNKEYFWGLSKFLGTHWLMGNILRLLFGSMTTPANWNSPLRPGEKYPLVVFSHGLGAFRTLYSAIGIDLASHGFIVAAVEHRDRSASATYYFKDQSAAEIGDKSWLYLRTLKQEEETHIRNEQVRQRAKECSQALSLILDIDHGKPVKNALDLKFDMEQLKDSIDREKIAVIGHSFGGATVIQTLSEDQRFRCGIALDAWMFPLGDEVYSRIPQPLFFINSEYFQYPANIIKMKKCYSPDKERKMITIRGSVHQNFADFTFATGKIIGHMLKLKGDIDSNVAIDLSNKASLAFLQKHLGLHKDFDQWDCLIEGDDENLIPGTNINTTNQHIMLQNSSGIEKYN
The assay can be described thus: Lp-PLA2 human plasma assay (Thio-PAF assay). The format is biochemical. The following applies: pooled human plasma; read-out: pIC50 values in the thio-PAF assay (converted). From the text: (3) Lipoprotein-Associated Phospholipase A2 (Lp-PLA2) Human Plasma Assay (Also Referred to as “Thio-PAF Assay”)
The human plasma assay utilizes a thioester analog of PAF (phosphatidylcholine), where hydrolysis yields to the formation of a phospholipid containing a free thiol group. The amount of thiol is quantitated continuously by reacting with CPM (7-diethylamino-3-(4′-maleimidylphenyl)-4-methylcoumarin), a maleimide which increases in fluoresence after Michael addition of thiols. This assay may detect the activity of Lp-PLA2 from plasma, as determined by specific inhibition by Lp-PLA2 inhibitors.
The thio-PAF assay was run as a quenched 15 μL assay. Compounds source plate was prepared by making 1:3 (by volume) serial dilution of the compounds into pure DMSO on 384-well microplate. 0.01 μL of compounds on compound source plate were transferred to 384 well Greiner 784076 (black) low-volume plates by ECHO liquid dispenser. 8 μL pooled human plasma, which was previously aliquoted and frozen, was added. Plates were centrifuged for 10 sec at 500 rpm. After 30 minutes preincubation, 2 μL of substrate (2.5 mM thio-PAF, 3.2 mM NEM (N-ethylmaleimide) [made fresh daily in DMSO], and 32 μM CPM [from a DMSO stock] in assay buffer of 50 mM HEPES, pH7.4, 150 mM NaCl, 1 mM CHAPS was added to 384 well Greiner 784076 (black) low-volume plates by BRAVO liquid handling station. Plates were centrifuged for 10 sec at 500 rpm. Plate was covered to protect from light and incubated for 2 min at room temperature. Reaction was quenched with 5 μL of 5% aqueous trifluoroacetic acid (TFA). Plates were covered to protect from light and incubated for 40 min at room temperature. Plates were read at ex: 380/em: 485 using-Envision microplate reader. PIC50 data, curve and QC analysis was conducted by using XLFit module in Excel.

Counter-ions that a name gives are not always drawn. Bounds are passed on as bounds.

`Cn1cc(Cn2cc(F)c(OCCc3ccc(Oc4ccc(Cl)c(C(F)(F)F)c4)cc3)nc2=O)cn1` [Example 29, 4-{[2-(4-{[4-Chloro-3-(trifluoromethyl)phenyl]oxy}phenyl)ethyl]oxy}-5-fluoro-1-[(1-methyl-1H-pyrazol-4-yl)methyl]-2(1H)-pyrimidinone]: the IC50 was ≤ 100 nM.
Consider `Cn1cc(Cn2cc(Cl)c(OCCc3ccc(Oc4ccc(Cl)c(C(F)(F)F)c4)cc3)nc2=O)cn1` [Example 30, 5-chloro-4-{[2-(4-{[4-Chloro-3-(trifluoromethyl)phenyl]oxy}phenyl)ethyl]oxy}-1-[(1-methyl-1H-pyrazol-4-yl)methyl]-2(1H)-pyrimidinone], for which the IC50 is ≤ 100 nM.
On to `COc1ncc(Cn2cc(F)c(OCCc3cnc(Oc4ccc(Cl)c(C(F)(F)F)c4)c(F)c3)nc2=O)cn1` [Example 34, 4-(2-(6-(4-chloro-3-(trifluoromethyl)phenoxy)-5-fluoropyridin-3-yl)ethoxy)-5-fluoro-1-((2-methoxypyrimidin-5-yl)methyl)pyrimidin-2(1H)-one], for which the IC50 is ≤ 100 nM.
With `Cn1cc(Cn2cc(F)c(OCCc3ccc(Oc4ccc(F)c(C(F)(F)F)c4)nc3)nc2=O)cn1` [Example 39, 5-fluoro-4-(2-(6-(4-fluoro-3-(trifluoromethyl)phenoxy)pyridin-3-yl)ethoxy)-1-((1-methyl-1H-pyrazol-4-yl)methyl)pyrimidin-2(1H)-one], the IC50 is ≤ 100 nM.
`Cn1cc(Cn2cc(F)c(OCCc3ccc(Oc4cccc(C(F)(F)F)n4)cc3)nc2=O)cn1` [Example 64, 5-fluoro-1-((1-methyl-1H-pyrazol-4-yl)methyl)-4-(4-((6-(trifluoromethyl)pyridin-2-yl)oxy)phenethoxy)pyrimidin-2(1H)-one]: the IC50 is ≤ 1000 nM.
With `N#Cc1cc(CCOc2ccn(Cc3cccnc3)c(=O)n2)ccc1Oc1ccc(Cl)c(C(F)(F)F)c1` [Example 7, 2-{[4-Chloro-3-(trifluoromethyl)phenyl]oxy}-5-(2-{[2-oxo-1-(3-pyridinylmethyl)-1,2-dihydro-4-pyrimidinyl]oxy}ethyl)benzonitrile trifluoroacetate], the IC50 was ≤ 100 nM.
With `Cn1cc(Cn2ccc(OCc3ccc(Oc4ccc(Cl)c(C(F)(F)F)c4)cn3)nc2=O)cn1` [Example 15, 4-{[(5-{[4-Chloro-3-(trifluoromethyl)phenyl]oxy}-2-pyridinyl)methyl]oxy}-1-[(1-methyl-1H-pyrazol-4-yl)methyl]-2(1H)-pyrimidinone], the IC50 was ≤ 100 nM.
For the compound `N#Cc1cc(CNc2ccn(Cc3cccnc3)c(=O)n2)ccc1Oc1ccc(Cl)c(C(F)(F)F)c1` [Example 19, 2-{[4-Chloro-3-(trifluoromethyl)phenyl]oxy}-5-({[2-oxo-1-(3-pyridinylmethyl)-1,2-dihydro-4-pyrimidinyl]amino}methyl)benzonitrile], the IC50 is ≤ 100 nM.
With `N#Cc1cc(COc2ccn(Cc3ccncc3)c(=O)n2)ccc1Oc1ccc(Cl)c(C(F)(F)F)c1` [Example 2, 2-{[4-Chloro-3-(trifluoromethyl)phenyl]oxy}-5-({[2-oxo-1-(4-pyridinylmethyl)-1,2-dihydro-4-pyrimidinyl]oxy}methyl)benzonitrile trifluoroacetate], the IC50 was ≤ 100 nM.
Turning to `COc1ncc(Cn2cc(F)c(OCCc3ccc(Oc4ccc(Cl)c(C(F)(F)F)c4)cc3)nc2=O)cn1` [Example 36, 4-(4-(4-chloro-3-(trifluoromethyl)phenoxy)phenethoxy)-5-fluoro-1-((2-methoxypyrimidin-5-yl)methyl)pyrimidin-2(1H)-one], the IC50 was ≤ 100 nM.
For `CCn1cc(F)c(OCCc2ccc(Oc3ccc(Cl)c(C(F)(F)F)c3)nc2)nc1=O` [Example 52, 4-(2-(6-(4-chloro-3-(trifluoromethyl)phenoxy)pyridin-3-yl)ethoxy)-1-ethyl-5-fluoropyrimidin-2(1H)-one], the IC50 was ≤ 1000 nM.
For `COc1ncc(Cn2cc(F)c(OCCc3ccc(Oc4cccc(C(F)(F)F)n4)cc3)nc2=O)cn1` [Example 65, 5-fluoro-1-((2-methoxypyrimidin-5-yl)methyl)-4-(4-((6-(trifluoromethyl)pyridin-2-yl)oxy)phenethoxy)pyrimidin-2(1H)-one] the value was ≤ 1000 nM; for `Cn1cc(Cn2ccc(OCc3ccc(Oc4ccc(Cl)c(C(F)(F)F)c4)c(C#N)c3)cc2=O)cn1` [Example 22, 2-{[4-Chloro-3-(trifluoromethyl)phenyl]oxy}-5-[({1-[(1-methyl-1H-pyrazol-4-yl)methyl]-2-oxo-1,2-dihydro-4-pyridinyl}oxy)methyl]benzonitrile], ≤ 1000 nM; for `Cn1cc(Cn2ccc(OCc3ccc(Oc4ccc(Cl)c(C(F)(F)F)c4)c(C#N)c3)nc2=O)cn1` [Example 6, 2-{[4-Chloro-3-(trifluoromethyl)phenyl]oxy}-5-[({1-[(1-methyl-1H-pyrazol-4-yl)methyl]-2-oxo-1,2-dihydro-4-pyrimidinyl}oxy)methyl]benzonitrile], ≤ 100 nM.
Take `COc1ncc(Cn2cc(Cl)c(OCc3ccc(Oc4ccc(F)c(F)c4)c(F)c3)nc2=O)cn1` [Example 54, 5-chloro-4-((4-(3,4-difluorophenoxy)-3-fluorobenzyl)oxy)-1-((2-methoxypyrimidin-5-yl)methyl)pyrimidin-2(1H)-one]: the IC50 is ≤ 100 nM.
Consider `Cn1cc(Cn2ccc(CCc3ccc(Oc4cccc(C(F)(F)F)c4)c(C#N)c3)nc2=O)cn1` [Example 20, 5-(2-{1-[(1-Methyl-1H-pyrazol-4-yl)methyl]-2-oxo-1,2-dihydro-4-pyrimidinyl}ethyl)-2-{[3-(trifluoromethyl)phenyl]oxy}benzonitrile], for which the IC50 is ≤ 1000 nM.
With `Cn1cc(Cn2cc(F)c(OCCc3cnc(Oc4ccc(F)c(C(F)(F)F)c4)c(F)c3)nc2=O)cn1` [Example 42, 5-fluoro-4-(2-(5-fluoro-6-(4-fluoro-3-(trifluoromethyl)phenoxy)pyridin-3-yl)ethoxy)-1-((1-methyl-1H-pyrazol-4-yl)methyl)pyrimidin-2(1H)-one], the IC50 was ≤ 100 nM.
Consider `Cn1cc(Cn2cc(F)c(OCCc3ccc(Oc4ccc(Cl)c(C(F)(F)F)c4)cn3)nc2=O)cn1` [Example 55, 4-(2-(5-(4-chloro-3-(trifluoromethyl)phenoxy)pyridin-2-yl)ethoxy)-5-fluoro-1-((1-methyl-1H-pyrazol-4-yl)methyl)pyrimidin-2(1H)-one], for which the IC50 was ≤ 100 nM.
Take `COc1ncc(Cn2cc(Cl)c(OCCc3cnc(Oc4ccc(F)c(C(F)(F)F)c4)c(F)c3)nc2=O)cn1` [Example 37, 5-chloro-4-(2-(5-fluoro-6-(4-fluoro-3-(trifluoromethyl)phenoxy)pyridin-3-yl)ethoxy)-1-((2-methoxypyrimidin-5-yl)methyl)pyrimidin-2(1H)-one]: the IC50 is ≤ 100 nM.
For `Cn1cc(Cn2cc(Cl)c(OCCc3ccc(Cc4ccc(Cl)c(C(F)(F)F)c4)cc3)nc2=O)cn1` [Example 44, 5-chloro-4-(4-(4-chloro-3-(trifluoromethyl)benzyl)phenethoxy)-1-((1-methyl-1H-pyrazol-4-yl)methyl)pyrimidin-2(1H)-one] the value was ≤ 100 nM; for `Cn1cc(Cn2ccc(OCCc3ccc(Oc4ccc(Cl)c(C(F)(F)F)c4)cc3)cc2=O)cn1` [Example 24, 4-{[2-(4-{[4-Chloro-3-(trifluoromethyl)phenyl]oxy}phenyl)ethyl]oxy}-1-[(1-methyl-1H-pyrazol-4-yl)methyl]-2(1H)-pyridinone], ≤ 1000 nM.
